# US20250059141A1, “TLR MODULATOR AND USE THEREOF” (DUALITY BIOLOGICS (SUZHOU) CO., LTD., priority 2021, published 2025)
# Molecular target: T1, hTLR7 (human Toll-like receptor 7) (Homo sapiens, UniProt Q9NYK1)
# T1 construct: host or cells: HEK-Blue hTLR7 (HEK293-derived reporter cells)
# T1 sequence (Q9NYK1 27-1049): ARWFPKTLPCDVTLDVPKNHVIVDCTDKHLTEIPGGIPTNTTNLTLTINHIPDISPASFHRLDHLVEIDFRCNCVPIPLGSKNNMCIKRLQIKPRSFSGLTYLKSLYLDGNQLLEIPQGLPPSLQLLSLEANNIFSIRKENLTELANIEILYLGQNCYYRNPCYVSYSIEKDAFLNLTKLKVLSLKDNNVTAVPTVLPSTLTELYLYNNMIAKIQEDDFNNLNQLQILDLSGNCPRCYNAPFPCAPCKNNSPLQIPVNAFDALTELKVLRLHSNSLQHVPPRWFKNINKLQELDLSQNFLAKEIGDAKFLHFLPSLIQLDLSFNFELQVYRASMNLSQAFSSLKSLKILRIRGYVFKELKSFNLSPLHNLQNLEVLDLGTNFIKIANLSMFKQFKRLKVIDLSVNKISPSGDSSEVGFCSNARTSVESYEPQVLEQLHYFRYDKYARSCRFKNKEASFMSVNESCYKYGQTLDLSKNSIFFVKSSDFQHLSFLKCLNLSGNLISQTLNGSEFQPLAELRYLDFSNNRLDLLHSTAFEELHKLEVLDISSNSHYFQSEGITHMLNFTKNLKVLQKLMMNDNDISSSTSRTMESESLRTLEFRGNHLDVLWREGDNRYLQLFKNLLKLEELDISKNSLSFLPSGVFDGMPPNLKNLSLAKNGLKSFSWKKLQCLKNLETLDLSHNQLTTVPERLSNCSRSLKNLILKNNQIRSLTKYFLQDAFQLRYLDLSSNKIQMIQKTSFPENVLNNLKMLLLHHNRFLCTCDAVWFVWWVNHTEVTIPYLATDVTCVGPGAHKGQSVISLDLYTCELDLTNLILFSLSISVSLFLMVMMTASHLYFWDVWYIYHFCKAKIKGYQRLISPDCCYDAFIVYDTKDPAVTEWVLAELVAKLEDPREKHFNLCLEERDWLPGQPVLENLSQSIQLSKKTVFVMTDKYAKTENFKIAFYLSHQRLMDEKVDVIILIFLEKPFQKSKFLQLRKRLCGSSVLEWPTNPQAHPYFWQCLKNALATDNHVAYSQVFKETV
# Assay: HEK-Blue hTLR7 reporter assay (QUANTI-Blue, OD650)
# Format: cell-based
# Details: HEK-Blue hTLR7 cells, 24 h; class symbols; read-out: Reporter assay TLR7 EC50
# Description: In this example, the agonistic activity of the compounds of the present application on hTLR7 (human Toll-like receptor 7) and hTLR8 (human Toll-like receptor 8) was assessed; the induction activity of the compounds on human PBMCs for TNF-α and IFN-α production was assessed in human PBMCs (human peripheral blood mononuclear cells).
# All compounds were formulated in DMSO into 30 mM stock solutions and preserved at 4° C. The reference compound ([…], Cat. No. tlrl-r848-5) was purchased from InvivoGen and formulated into a 5 mg/mL stock solution in DMSO and preserved in a freezer at −20° C. HEK-Blue hTLR7 and HEK-Blue hTLR8 cell lines were purchased from InvivoGen, and human PBMCs were purchased from Shanghai Saily Biotechnology Co., Ltd. (Cat. No. XFB—HP100B).
# The major instruments used in this study were multifunctional microplate reader Flexstation III (Molecular Device), Envision (Perkin Elmer), M2e (Molecular Device), and Echo555 (Labcyte). 2.1 Agonistic activity of compounds on hTLR7 (human Toll-like receptor 7) and hTLR8 (human Toll-like receptor 8)
# Compound dilution: The compounds of the present application are diluted in DMSO, for example, to about 15 mM. The reference compound was added to the plates in sequence after dilution. The compounds were serially 3-fold diluted to 10 concentrations and added to 96-well plates in duplicate.
# For the negative control wells, DMSO was added at 0.2 μL/well, and the reference compound was added to the positive control wells. The final concentration of DMSO was 0.2%.
# Cell plating: When an 80% confluence of HEK Blue hTLR7&8 cells in the culture flask was observed under a microscope, the culture medium was discarded, 10 mL of detection medium was added, and the cells were separated by pipetting. The cells were counted on a cytometer and diluted to 500,000 cells/mL. The cells were plated at 100 μL/50,000 cells/well in the 96-well plates containing the compounds. The compounds and cells were co-incubated at 37° C. in a 5% CO2 incubator for 24 hours.
# Compound activity detection: 20 μL of cell supernatant was taken from each well and added to a plate containing QUANTI-Blue™ reagent at 180 μL/well. The plate was incubated at 37° C. for 1 hour, and the absorbance at 650 nm (OD650) was measured on the multifunctional microplate reader Flexstation III.
# Compound activity data analysis: The OD650 values were analyzed by GraphPad Prism software and fitted to give dose-response curves of the compounds. The EC50 values of compounds were calculated.
row,EC50 [nM],Compound
1,> 1000,CCCN(OCc1ccc(N)cc1)C(=O)C1=Cc2ccc(-c3cncc(C(=O)O)c3)cc2N=C(N)C1 [Compound 32]
2,100 to 1000,CCCN(OCc1ccc(N)cc1)C(=O)C1=Cc2ccc(-c3cccc(S(=O)(=O)NCCO)c3)cc2N=C(N)C1 [Compound 64]
3,100 to 1000,CCCN(OCc1ccc(N)cc1)C(=O)C1=Cc2ccc(-c3cccc(S(=O)(=O)N4CCC(O)CC4)c3)cc2N=C(N)C1 [Compound 66]
4,100 to 1000,CCCN(OCc1ccc(N)cc1)C(=O)C1=Cc2ccc(-c3cccc(S(=O)(=O)N4CCNCC4)c3)cc2N=C(N)C1 [Compound 67]
5,100 to 1000,CCCN(OCc1ccc(N)cc1)C(=O)C1=Cc2ccc(-c3cccc(S(=O)(=O)N4CCOCC4)c3)cc2N=C(N)C1 [Compound 68]
6,100 to 1000,CCCN(OCc1ccc(N)cc1)C(=O)C1=Cc2ccc(-c3cncc(S(=O)(=O)NCCO)c3)cc2N=C(N)C1 [Compound 70]

# Further lines, the compound ahead of its results:
row,Compound,EC50 [nM]
1,CCCN(OCc1ccc(N)cc1)C(=O)C1=Cc2ccc(C(=O)N3CC(CO)C3)cc2N=C(N)C1 [Compound 37],> 1000
2,CCCN(OCc1ccc(N)cc1)C(=O)C1=Cc2ccc(-c3ccc(C(=O)N4CC[C@@H](O)C4)cc3)cc2N=C(N)C1 [Compound 42],> 1000
3,CCCN(OCc1ccc(N)cc1)C(=O)C1=Cc2ccc(C(=O)N3CCC(O)C3)cc2N=C(N)C1 (centres unmarked) [Compound 46],> 1000
4,CCCN(OCc1ccc(N)cc1)C(=O)C1=Cc2ccc(C(=O)N3CCOC(CO)C3)cc2N=C(N)C1 (centres unmarked) [Compound 47],> 1000
5,CCCN(OCc1ccc(N)cc1)C(=O)C1=Cc2ccc(C(=O)NCCO)cc2N=C(N)C1 [Compound 48],> 1000
6,CCCN(OCc1ccc(N)cc1)C(=O)C1=Cc2ccc(-c3cncc(C(F)(F)F)c3)cc2N=C(N)C1 [Compound 53],100 to 1000
7,NC1=Nc2cc(-c3cncc(CO)c3)ccc2C=C(C(=O)N(CCC(F)(F)F)OCc2ccc(N)cc2)C1 [Compound 58],100 to 1000
8,CCCN(OCc1ccc(N)cc1Cl)C(=O)C1=Cc2ncc(-c3cncc(CO)c3)cc2N=C(N)C1 [Compound 59],100 to 1000
9,CCCN(OCc1ccc(N)cc1OC)C(=O)C1=Cc2ncc(-c3cncc(CO)c3)cc2N=C(N)C1 [Compound 60],100 to 1000
10,CCCN(OCc1ccc(N)cc1)C(=O)C1=Cc2ncc(-c3cncc(CO)c3)cc2N=C(N)C1 [Compound 61],100 to 1000
11,CCCN(OCc1ccc(N)cc1)C(=O)C1=Cc2ccc(-c3cncc(CO)c3)nc2N=C(N)C1 [Compound 62],100 to 1000
12,CCCN(OCc1ccc(N)cc1)C(=O)C1=Cc2ccc(-c3cnc4c(c3)C(=O)OC4)nc2N=C(N)C1 [Compound 63],100 to 1000
13,CCCN(OCc1ccc(N)cc1)C(=O)C1=Cc2ccc(-c3cncc(S(=O)(=O)N4CCNCC4)c3)cc2N=C(N)C1 [Compound 69],100 to 1000
14,CCCN(OCc1ccc(N)cc1)C(=O)C1=Cc2ccc(-c3cncc(S(=O)(=O)N4CCC(O)CC4)c3)cc2N=C(N)C1 [Compound 71],100 to 1000
15,CCCN(OCc1ccc(N)cc1)C(=O)C1=Cc2ccc(-c3cncc(S(=O)(=O)N4CC[C@H](O)C4)c3)cc2N=C(N)C1 [Compound 72],100 to 1000
16,CCCN(OCc1ccc(N)cc1)C(=O)C1=Cc2ccc(-c3cncc([S+](C)[O-])c3)cc2N=C(N)C1 (centres unmarked) [Compound 73],100 to 1000
17,CCCN(OCc1ccc(N)cc1)C(=O)C1=Cc2ccc(C(=O)NC(C)(C)c3ccccc3)cc2N=C(N)C1 [Compound 76],100 to 1000
18,CCCN(OCc1ccc(N)cc1)C(=O)C1=Cc2ccc(C(=O)N[C@@H](C)c3ccccc3)cc2N=C(N)C1 [Compound 77],100 to 1000
19,CCCN(OCc1ccc(N)cc1)C(=O)C1=Cc2ccc(C(=O)N[C@H]3C[C@@H]3c3ccccc3)cc2N=C(N)C1 [Compound 78],100 to 1000
20,CCCN(OCc1ccc(N)cc1)C(=O)C1=Cc2ccc(C(=O)NC3COC3)cc2N=C(N)C1 [Compound 81],> 1000
21,CCCN(OCc1ccc(N)cc1)C(=O)C1=Cc2ccc(C(=O)NC3CCCCC3)cc2N=C(N)C1 [Compound 82],> 1000
22,CCCN(OCc1ccc(N)cc1)C(=O)C1=Cc2ccc(C(=O)NC3CCOCC3)cc2N=C(N)C1 [Compound 84],> 1000
23,CCCN(OCc1ccc(N)cc1)C(=O)C1=Cc2ccc(C(=O)Nc3cncc(OC)c3)cc2N=C(N)C1 [Compound 85],> 1000
24,CCCN(OCc1ccc(N)cc1)C(=O)C1=Cc2ccc(C(=O)Nc3cccc(CN)c3)cc2N=C(N)C1 [Compound 86],> 1000
25,CCCN(OCc1ccc(N)cc1)C(=O)C1=Cc2ccc(C(=O)Nc3ncco3)cc2N=C(N)C1 [Compound 87],> 1000
26,CCCN(OCc1ccc(N)cc1)C(=O)C1=Cc2ccc(C(=O)Nc3ccn(C)n3)cc2N=C(N)C1 [Compound 88],> 1000
27,CCCN(OCc1ccc(N)cc1)C(=O)C1=Cc2ccc(C(=O)Nc3ccc4cn[nH]c4c3)cc2N=C(N)C1 [Compound 89],> 1000

# Same assay, conditions: HEK-Blue hTLR7 cells, 24 h; read-out: Reporter assay TLR7 EC50
row,EC50 [nM],Compound
1,712,CCCN(OCc1ccc(N)cc1)C(=O)C1=Cc2ccc(-c3cncc(CO)c3)cc2N=C(N)C1 [Compound 15]
2,758,CCCN(OCc1ccc(N)cc1)C(=O)C1=Cc2ccc(-c3cccc(S(N)(=O)=O)c3)cc2N=C(N)C1 [Compound 35]
3,1080,CCCN(OCc1ccc(N)cc1)C(=O)C1=Cc2ccc(-c3cncc(S(N)(=O)=O)c3)cc2N=C(N)C1 [Compound 36]
4,2240,CCCN(OCc1ccc(N)cc1)C(=O)C1=Cc2ccc(-c3cccc(S(=O)(=O)N4CC(O)C4)c3)cc2N=C(N)C1 [Compound 41]
5,180,CCCN(OCc1ccc(N)cc1)C(=O)C1=Cc2ccc(-c3ccc4c(c3)C(=O)OC4)cc2N=C(N)C1 [Compound 43]
6,245,CCCN(OCc1ccc(N)cc1)C(=O)C1=Cc2ccc(-c3cncc(Cl)c3)cc2N=C(N)C1 [Compound 49]
7,355,CCCN(OCc1ccc(N)cc1)C(=O)C1=Cc2ccc(-c3cncc(N)c3)cc2N=C(N)C1 [Compound 52]
8,528,CCCN(OCc1ccc(N)cc1)C(=O)C1=Cc2ccc(-c3cncc(CN)c3)cc2N=C(N)C1 [Compound 54]
9,664,CCCN(OCc1ccc(N)cc1)C(=O)C1=Cc2ccc(-c3cncc(S(C)(=O)=O)c3)cc2N=C(N)C1 [Compound 56]

# The next lines start with the compound.
row,Compound,EC50 [nM]
1,CCCN(OCc1ccc(N)cc1)C(=O)C1=Cc2ccc(C(=O)Nc3cccnc3)cc2N=C(N)C1 [Compound 40],11700
2,NC1=Nc2cc(-c3cncc(CO)c3)ccc2C=C(C(=O)N(CC2CC2)OCc2ccc(N)cc2)C1 [Compound 45],1160
3,CCCN(OCc1ccc(N)cc1)C(=O)C1=Cc2ccc(-c3cncc(C#N)c3)cc2N=C(N)C1 [Compound 50],274
4,CCCN(OCc1ccc(N)cc1)C(=O)C1=Cc2ccc(-c3ccc(C#N)nc3)cc2N=C(N)C1 [Compound 51],428
5,CCCN(OCc1ccc(N)cc1)C(=O)C1=Cc2ccc(-c3ccc(N4CCOCC4)nc3)cc2N=C(N)C1 [Compound 55],685
